Measurements taken from patent US10168342B2, “Lipid probes and uses thereof” (THE SCRIPPS RESEARCH INSTITUTE, priority 2015, dated 2019).
Like-named read-outs stand apart in the source and are kept apart here.

Columns and labels:
[1] = molecular target: T1, AEA-DA lipid probe targets in Neuro2a cells (Mus musculus, UniProt O35114)
T1 sequence (O35114 1-478): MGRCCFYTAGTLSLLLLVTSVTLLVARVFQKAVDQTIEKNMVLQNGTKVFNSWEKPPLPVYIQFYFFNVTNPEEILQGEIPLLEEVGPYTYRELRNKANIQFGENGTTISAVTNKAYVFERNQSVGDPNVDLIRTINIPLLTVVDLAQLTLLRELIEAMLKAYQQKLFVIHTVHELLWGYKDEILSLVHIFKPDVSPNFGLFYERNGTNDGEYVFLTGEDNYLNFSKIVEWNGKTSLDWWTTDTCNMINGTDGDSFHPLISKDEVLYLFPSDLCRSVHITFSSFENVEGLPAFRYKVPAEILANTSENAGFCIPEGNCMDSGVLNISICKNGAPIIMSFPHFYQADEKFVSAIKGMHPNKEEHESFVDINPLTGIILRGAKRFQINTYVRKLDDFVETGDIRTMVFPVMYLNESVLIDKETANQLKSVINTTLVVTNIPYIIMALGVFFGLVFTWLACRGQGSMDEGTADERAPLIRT

[2] = molecular target: T2, AEA-DA lipid probe targets in Neuro2a cells (Mus musculus, UniProt Q8C0L0)
T2 sequence (Q8C0L0 21-335): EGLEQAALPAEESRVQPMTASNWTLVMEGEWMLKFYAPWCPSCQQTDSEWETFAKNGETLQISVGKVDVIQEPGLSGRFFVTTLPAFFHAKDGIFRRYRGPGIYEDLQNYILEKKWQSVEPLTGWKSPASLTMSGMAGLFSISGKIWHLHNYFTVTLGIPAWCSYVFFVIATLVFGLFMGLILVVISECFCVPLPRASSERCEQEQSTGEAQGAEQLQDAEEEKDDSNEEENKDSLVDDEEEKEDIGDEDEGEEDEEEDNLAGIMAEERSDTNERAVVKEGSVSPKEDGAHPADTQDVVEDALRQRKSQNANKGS

[3] = molecular target: T3, AEA-DA lipid probe targets in Neuro2a cells (Mus musculus, UniProt Q7TMK9)
T3 sequence (Q7TMK9 1-623): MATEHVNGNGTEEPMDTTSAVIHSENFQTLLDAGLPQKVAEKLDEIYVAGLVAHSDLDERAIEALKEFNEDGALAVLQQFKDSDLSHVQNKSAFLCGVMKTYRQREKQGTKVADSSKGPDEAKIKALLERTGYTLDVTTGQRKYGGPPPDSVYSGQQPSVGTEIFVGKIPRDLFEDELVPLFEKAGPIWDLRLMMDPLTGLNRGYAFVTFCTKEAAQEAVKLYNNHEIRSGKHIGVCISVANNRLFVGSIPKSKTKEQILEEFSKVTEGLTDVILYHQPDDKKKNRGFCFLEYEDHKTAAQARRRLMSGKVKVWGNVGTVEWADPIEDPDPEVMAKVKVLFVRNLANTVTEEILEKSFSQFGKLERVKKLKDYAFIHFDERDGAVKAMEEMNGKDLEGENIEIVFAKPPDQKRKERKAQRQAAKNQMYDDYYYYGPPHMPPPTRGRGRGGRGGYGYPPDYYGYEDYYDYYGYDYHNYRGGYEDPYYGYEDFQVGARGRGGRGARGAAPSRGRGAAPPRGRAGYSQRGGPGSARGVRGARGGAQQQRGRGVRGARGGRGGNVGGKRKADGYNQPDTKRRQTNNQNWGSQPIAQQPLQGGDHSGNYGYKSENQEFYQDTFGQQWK

[4] = molecular target: AEA-DA lipid probe targets in Neuro2a cells (Mus musculus, UniProt P57716)
Chain of AEA-DA lipid probe targets in Neuro2a cells (Mus musculus, UniProt P57716) (P57716 28-708): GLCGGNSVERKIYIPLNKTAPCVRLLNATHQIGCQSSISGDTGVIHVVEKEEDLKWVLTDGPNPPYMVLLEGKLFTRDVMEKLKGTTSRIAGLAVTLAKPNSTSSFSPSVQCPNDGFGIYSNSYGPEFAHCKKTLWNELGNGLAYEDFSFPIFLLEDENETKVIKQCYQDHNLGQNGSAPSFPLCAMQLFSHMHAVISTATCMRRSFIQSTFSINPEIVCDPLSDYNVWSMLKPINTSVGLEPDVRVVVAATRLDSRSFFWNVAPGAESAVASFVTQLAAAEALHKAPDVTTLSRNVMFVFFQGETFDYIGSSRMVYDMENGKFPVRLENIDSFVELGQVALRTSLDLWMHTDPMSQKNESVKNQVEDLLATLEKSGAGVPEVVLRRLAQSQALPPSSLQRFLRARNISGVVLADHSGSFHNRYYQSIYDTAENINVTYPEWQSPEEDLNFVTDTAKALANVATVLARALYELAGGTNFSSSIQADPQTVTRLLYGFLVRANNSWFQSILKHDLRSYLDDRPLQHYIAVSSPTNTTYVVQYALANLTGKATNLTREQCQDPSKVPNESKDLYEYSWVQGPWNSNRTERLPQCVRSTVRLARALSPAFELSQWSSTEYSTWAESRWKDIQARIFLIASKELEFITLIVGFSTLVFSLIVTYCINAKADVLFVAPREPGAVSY

[5] = molecular target: T4, AEA-DA lipid probe targets in Neuro2a cells (Mus musculus, UniProt Q8VD00)
T4 sequence (Q8VD00 1-176): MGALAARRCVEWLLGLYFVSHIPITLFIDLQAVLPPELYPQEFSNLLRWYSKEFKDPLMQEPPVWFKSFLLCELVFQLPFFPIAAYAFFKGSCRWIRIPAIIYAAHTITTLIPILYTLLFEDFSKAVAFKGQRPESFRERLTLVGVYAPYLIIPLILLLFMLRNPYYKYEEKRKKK

[6] = molecular target: T5, AEA-DA lipid probe targets in Neuro2a cells (Mus musculus, UniProt Q6PD26)
T5 sequence (Q6PD26 1-555): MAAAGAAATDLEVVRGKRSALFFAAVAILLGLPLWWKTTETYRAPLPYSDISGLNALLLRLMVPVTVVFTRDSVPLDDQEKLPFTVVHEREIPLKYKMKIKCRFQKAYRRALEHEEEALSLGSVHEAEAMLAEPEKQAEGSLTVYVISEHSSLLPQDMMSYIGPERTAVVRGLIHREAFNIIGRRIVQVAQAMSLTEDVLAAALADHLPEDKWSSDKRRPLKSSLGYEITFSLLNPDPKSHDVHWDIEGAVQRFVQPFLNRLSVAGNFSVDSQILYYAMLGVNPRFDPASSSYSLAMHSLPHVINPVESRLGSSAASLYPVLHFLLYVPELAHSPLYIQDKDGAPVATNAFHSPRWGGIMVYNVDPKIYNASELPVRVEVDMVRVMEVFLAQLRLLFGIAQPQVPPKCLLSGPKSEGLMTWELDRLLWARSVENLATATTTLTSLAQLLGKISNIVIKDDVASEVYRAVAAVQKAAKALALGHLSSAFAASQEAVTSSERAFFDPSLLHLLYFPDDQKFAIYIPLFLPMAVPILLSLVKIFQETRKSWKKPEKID

[7] = molecular target: T6, AEA-DA lipid probe targets in Neuro2a cells (Mus musculus, UniProt Q8BJ03); conditions: protein Cox15, Neuro2a cells
T6 sequence (Q8BJ03 1-413): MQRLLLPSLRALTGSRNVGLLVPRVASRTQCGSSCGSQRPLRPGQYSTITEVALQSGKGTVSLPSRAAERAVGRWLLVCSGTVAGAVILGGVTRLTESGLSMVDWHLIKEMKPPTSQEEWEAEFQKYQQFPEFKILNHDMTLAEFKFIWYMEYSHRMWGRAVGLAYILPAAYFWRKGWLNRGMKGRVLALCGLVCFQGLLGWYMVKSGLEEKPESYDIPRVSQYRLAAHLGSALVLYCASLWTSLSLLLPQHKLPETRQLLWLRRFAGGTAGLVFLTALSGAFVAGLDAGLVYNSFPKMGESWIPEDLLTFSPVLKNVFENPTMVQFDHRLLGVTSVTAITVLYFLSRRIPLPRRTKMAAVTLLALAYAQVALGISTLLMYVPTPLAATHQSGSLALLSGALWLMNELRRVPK

## CCCCC/C=C\C/C=C\C/C=C\C/C=C\CCCC(=O)NCCO [AEA, anandamide, reference compound]
[1]; competitor 200 μM
  SILAC ratio Scarb2: 1.5
[2]; competitor 200 μM
  SILAC ratio Tmx4: 1.9
[3]; competitor 200 μM
  SILAC ratio Syncrip: 1.2
[4]; competitor 200 μM
  SILAC ratio Ncstn: 1.6
[5]; competitor 200 μM
  SILAC ratio, Tmem97: 1.8
[6]; competitor 200 μM
  SILAC ratio Pigs: 1.6
[7]; competitor 200 μM
  SILAC ratio (AEA-DA competition): 1.0

## C=CCN(C)CCCCCCOc1ccc(C(=O)c2ccc(Br)cc2)c(F)c1 [Ro 48-8071, reference compound]
[1]; competitor 25 μM
  SILAC ratio Scarb2: 1.1
[2]; competitor 25 μM
  SILAC ratio Tmx4: 1.2
[3]; competitor 25 μM
  SILAC ratio Syncrip: 0.8
[4]; competitor 25 μM
  SILAC ratio Ncstn: 1.0
[5]; competitor 25 μM
  SILAC ratio, Tmem97: 10.0
[6]; competitor 25 μM
  SILAC ratio Pigs: 1.1
[7]; competitor 25 μM
  SILAC ratio (AEA-DA competition): 0.8

## CN1CCN(C(=O)c2c(-c3ccccc3)c3cc([N+](=O)[O-])ccc3n2C)CC1 [KML110, (1-Methyl-5-nitro-3-phenyl-1H-indol-2-yl)(4-methylpiperazin-1-yl)methanone]
[1]; competitor 25 μM
  SILAC ratio Scarb2: 1.3
[2]; competitor 25 μM
  SILAC ratio Tmx4: 1.4
[3]; competitor 25 μM
  SILAC ratio Syncrip: 1.4
[4]; competitor 25 μM
  SILAC ratio Ncstn: 1.3
[5]; competitor 25 μM
  SILAC ratio, Tmem97: 1.6
[6]; competitor 25 μM
  SILAC ratio Pigs: 1.2
[7]; competitor 25 μM
  SILAC ratio (AEA-DA competition): 1.1

## O=C(/C=C/c1cccnc1)NCCCCC1CCN(C(=O)c2ccccc2)CC1 [FK-866, reference compound]
[1]; competitor 25 μM
  SILAC ratio Scarb2: 1.1
[2]; competitor 25 μM
  SILAC ratio Tmx4: 1.0
[3]; competitor 25 μM
  SILAC ratio Syncrip: 1.1
[4]; competitor 25 μM
  SILAC ratio Ncstn: 1.1
[5]; competitor 25 μM
  SILAC ratio, Tmem97: 1.0
[6]; competitor 25 μM
  SILAC ratio Pigs: 1.3
[7]; competitor 25 μM
  SILAC ratio (AEA-DA competition): 0.9

## CN1CCN(C(=O)c2[nH]c3ccc([N+](=O)[O-])cc3c2-c2ccccc2)CC1 [MJN228, (4-Methylpiperazin-1-yl)(5-nitro-3-phenyl-1H-indol-2-yl)methanone]
[1]; competitor 10 μM
  SILAC ratio Scarb2: 1.3
[1]; competitor 25 μM
  SILAC ratio Scarb2: 1.5
[1]; competitor 50 μM
  SILAC ratio Scarb2: 1.7
[1]; competitor 100 μM
  SILAC ratio Scarb2: 1.9
[2]; competitor 10 μM
  SILAC ratio Tmx4: 1.0
[2]; competitor 25 μM
  SILAC ratio Tmx4: 1.3
[2]; competitor 50 μM
  SILAC ratio Tmx4: 1.3
[2]; competitor 100 μM
  SILAC ratio Tmx4: 1.6
[3]; competitor 10 μM
  SILAC ratio Syncrip: 0.9
[3]; competitor 25 μM
  SILAC ratio Syncrip: 1.2
[3]; competitor 50 μM
  SILAC ratio Syncrip: 1.3
[3]; competitor 100 μM
  SILAC ratio Syncrip: 1.1
[4]; competitor 10 μM
  SILAC ratio Ncstn: 1.3
[4]; competitor 25 μM
  SILAC ratio Ncstn: 1.6
[4]; competitor 50 μM
  SILAC ratio Ncstn: 1.2
[4]; competitor 100 μM
  SILAC ratio Ncstn: 1.8
[5]; competitor 10 μM
  SILAC ratio, Tmem97: 1.4
[5]; competitor 25 μM
  SILAC ratio, Tmem97: 1.7
[5]; competitor 50 μM
  SILAC ratio, Tmem97: 2.1
[5]; competitor 100 μM
  SILAC ratio, Tmem97: 3.2
[6]; competitor 10 μM
  SILAC ratio Pigs: 1.3
[6]; competitor 25 μM
  SILAC ratio Pigs: 1.6
[6]; competitor 50 μM
  SILAC ratio Pigs: 1.7
[6]; competitor 100 μM
  SILAC ratio Pigs: 2.0
[7]; competitor 10 μM
  SILAC ratio (AEA-DA competition): 0.8
[7]; competitor 25 μM
  SILAC ratio (AEA-DA competition): 1.0
[7]; competitor 50 μM
  SILAC ratio (AEA-DA competition): 0.7
[7]; competitor 100 μM
  SILAC ratio (AEA-DA competition): 0.6
